Read-outs that look alike come from different tables or passages of the source.
Assays:
[1] = system: genotype 1b (Con-1) HCV replicon; assay: HCV replicon luciferase assay; type: cell-based; conditions: Hepatitis C virus, 72 h, genotype 1b replicon, Huh-7, Renilla luciferase, 3 days
Description: The cell lines used to evaluate compounds consist of a human hepatocyte derived cell line (Huh-7) that constitutively expresses a genotype 1b (Con-1) HCV replicon or a genotype 1b (Con-1) HCV replicon with an asparagine replacing the cysteine at amino acid 316, or a genotype 2a (JFH-1) replicon, containing a Renilla luciferase reporter gene. These cells were maintained in Dulbecco's modified Eagle medium (DMEM) containing 10% FBS, 100 U/mL penicillin/streptomycin and 1.0 mg/mL G418.
To evaluate compound efficacy, titrated compounds were transferred to sterile 384-well tissue culture treated plates, and the plates were seeded with HCV replicon cells (50 μL at a density of 2.4×10^3 cells/well) in DMEM containing 4% FBS (final DMSO concentration at 0.5%). After 3 days incubation at 37° C., cells were analyzed for Renilla Luciferase activity using the EnduRen substrate (Promega cat #E6485) according to the manufacturer's directions. Briefly, the EnduRen substrate was diluted in DMEM and then added to the plates to a final concentration of 7.5 μM. The plates were incubated for at least 1 h at 37° C. then read on a Viewlux Imager (PerkinElmer) using a luminescence program. The 50% effective concentration (EC50) was calculated using the four-parameter logistic formula noted above.

[2] = system: HCV; conditions: cited from earlier work
[3] = system: HCV; conditions: cited from earlier work; remark: listed apart in the source

Compound	EC50 ([1]; read-out: EC50 1b (class))	also measured
CCN(c1cc2oc(-c3ccc(Oc4ccccc4)cc3)c(C(=O)NC)c2cc1-c1cccc(C(=O)NC(C)(C)C)c1)S(C)(=O)=O [Compound 1001]	< 0.1 µM	
CCN(c1cc2oc(-c3ccc(Oc4ccc(F)cc4)cc3)c(C(=O)NC)c2cc1-c1cccc(C(=O)NC(C)(C)C)c1)S(C)(=O)=O [Compound 1002]	< 0.1 µM	
CCN(c1cc2oc(-c3ccc(Oc4cccc(F)c4)cc3)c(C(=O)NC)c2cc1-c1cccc(C(=O)NC(C)(C)C)c1)S(C)(=O)=O [Compound 1003]	< 0.1 µM	EC50 ([1]; read-out: EC50 (uM) 1b): 0.0023 µM
CCN(c1cc2oc(-c3ccc(Oc4ccccc4F)cc3)c(C(=O)NC)c2cc1-c1cccc(C(=O)NC(C)(C)C)c1)S(C)(=O)=O [Compound 1004]	< 0.1 µM	
CCN(c1cc2oc(-c3ccc(Oc4ccc(OC)cc4)cc3)c(C(=O)NC)c2cc1-c1cccc(C(=O)NC(C)(C)C)c1)S(C)(=O)=O [Compound 1005]	0.1 to 1 µM	EC50 ([1]; read-out: EC50 (uM) 1b): 0.12 µM
CCN(c1cc2oc(-c3ccc(Oc4cccc(OC)c4)cc3)c(C(=O)NC)c2cc1-c1cccc(C(=O)NC(C)(C)C)c1)S(C)(=O)=O [Compound 1006]	< 0.1 µM	
CCN(c1cc2oc(-c3ccc(Oc4ccccc4OC)cc3)c(C(=O)NC)c2cc1-c1cccc(C(=O)NC(C)(C)C)c1)S(C)(=O)=O [Compound 1007]	< 0.1 µM	EC50 ([1]; read-out: EC50 (uM) 1b): 0.024 µM
CCN(CC)c1cc2oc(-c3ccc(Oc4cccc(F)c4)cc3)c(C(=O)NC)c2cc1-c1ccc(O)c(C(N)=O)c1 [Compound 1008]	< 0.1 µM	EC50 ([1]; read-out: EC50 (uM) 1b): 0.013 µM
CCN(CC)c1cc2oc(-c3ccc(Oc4cccc(F)c4)cc3)c(C(=O)NC)c2cc1-c1ccc(OC)c(C(N)=O)c1 [Compound 1010]	0.1 to 1 µM	
CCN(CC)c1cc2oc(-c3ccc(Oc4cccc(F)c4)cc3)c(C(=O)NC)c2cc1-c1cccc(C(=O)NC(C)(C)C(=O)O)c1 [Compound 1012]	> 1 µM	EC50 ([1]; read-out: EC50 (uM) 1b): 1.47 µM
CCNc1cc2oc(-c3ccc(Oc4cccc(F)c4)cc3)c(C(=O)NC)c2cc1-c1cccc(C(=O)NC(C)(C)CC(=O)O)c1 [Compound 1013]	0.1 to 1 µM	
CCOC(=O)c1c(-c2ccc(Oc3cccc(O)c3)cc2)oc2cc([N+](=O)[O-])c(O)cc12 [Compound 1014]	> 1 µM	EC50 ([1]; read-out: EC50 (uM) 1b): 9.94 µM
CCN(c1cc2oc(-c3ccc(Oc4cccc(F)c4)cc3)c(C(=O)NC)c2cc1-c1cccc(C(=O)NC2(C)CC2)c1)S(C)(=O)=O [Compound 1015]	> 1 µM	
CCN(c1cc2oc(-c3ccc(Oc4cccc(Cl)c4)cc3)c(C(=O)NC)c2cc1-c1cccc(C(N)=O)c1)S(C)(=O)=O [Compound 1016]	< 0.1 µM	
CCN(c1cc2oc(-c3ccc(Oc4cccc(F)c4)cc3)c(C(=O)NC)c2cc1-c1cccc(C(=O)N[C@@H](C)C(F)(F)F)c1)S(C)(=O)=O [Compound 1017]	< 0.1 µM	EC50 ([1]; read-out: EC50 (uM) 1b): 0.0062 µM
CCN(c1cc2oc(-c3ccc(Oc4cccc(F)c4)cc3)c(C(=O)NC)c2cc1-c1cccc(C(N)=O)c1)S(C)(=O)=O [Compound 1018]	< 0.1 µM	
CCN(c1cc2oc(-c3ccc(Oc4cccc(Cl)c4)cc3)c(C(=O)NC)c2cc1-c1cccc(C(=O)N[C@@H](C)C(F)(F)F)c1)S(C)(=O)=O [Compound 1019]	< 0.1 µM	
CNC(=O)c1c(-c2ccc(Oc3cccc(F)c3)cc2)oc2cc(N(C)S(C)(=O)=O)c(-c3cccc(C(=O)NCC(F)(F)F)c3)cc12 [Compound 1020]	< 0.1 µM	
[2H]C([2H])([2H])C(NC(=O)c1cc(-c2cc3c(C(=O)NC)c(-c4ccc(Oc5cccc(F)c5)cc4)oc3cc2N(CC)S(C)(=O)=O)ccc1OC)(C([2H])([2H])[2H])C([2H])([2H])[2H] [Compound 1021]	< 0.1 µM	
[2H]C([2H])([2H])C(NC(=O)c1cc(-c2cc3c(C(=O)NC)c(-c4ccc(Oc5ccc(F)cc5)cc4)oc3cc2N(CC)S(C)(=O)=O)ccc1OC)(C([2H])([2H])[2H])C([2H])([2H])[2H] [Compound 1022]	< 0.1 µM	
CCN(c1cc2oc(-c3ccc(Oc4cccc(F)c4)cc3)c(C(=O)NC)c2cc1-c1cccc(C(=O)NCC(C)(C)CO)c1)S(C)(=O)=O [Compound 1023]	< 0.1 µM	EC50 ([1]; read-out: EC50 (uM) 1b): 0.0028 µM
CNC(=O)c1c(-c2ccc(Oc3ccc(F)cc3)cc2)oc2cc(N(C)S(C)(=O)=O)c(-c3cccc(C(=O)NCC(F)(F)F)c3)cc12 [Compound 1026]	< 0.1 µM	
CNC(=O)c1c(-c2ccc(Oc3ccccc3)cc2)oc2nc(CCC(F)(F)F)c(-c3cccc(C(=O)NC(C)(C)C)c3)cc12 [Compound 2001]	< 0.1 µM	

Compound	EC50 ([1]; read-out: EC50 1b (class))	also measured
CNC(=O)c1c(-c2ccc(Oc3ccc(C)cc3)cc2)oc2nc(CCC(F)(F)F)c(-c3cccc(C(=O)NC(C)(C)C)c3)cc12 [Compound 2002]	< 0.1 µM	
CNC(=O)c1c(-c2ccc(Oc3ccc(OC)cc3)cc2)oc2nc(CCC(F)(F)F)c(-c3cccc(C(=O)NC(C)(C)C)c3)cc12 [Compound 2003]	0.1 to 1 µM	
CNC(=O)c1c(-c2ccc(Oc3ccc(F)cc3)cc2)oc2nc(CCC(F)(F)F)c(-c3cccc(C(=O)NC(C)(C)C)c3)cc12 [Compound 2004]	< 0.1 µM	
CNC(=O)c1c(-c2ccc(Oc3cccc(F)c3)cc2)oc2nc(CCC(F)(F)F)c(-c3cccc(C(=O)NC(C)(C)C)c3)cc12 [Compound 2005]	< 0.1 µM	
CNC(=O)c1c(-c2ccc(Oc3ccccc3F)cc2)oc2nc(CCC(F)(F)F)c(-c3cccc(C(=O)NC(C)(C)C)c3)cc12 [Compound 2006]	< 0.1 µM	
CNC(=O)c1c(-c2ccc(Oc3cccc(C)c3)cc2)oc2nc(CCC(F)(F)F)c(-c3cccc(C(=O)NC(C)(C)C)c3)cc12 [Compound 2007]	< 0.1 µM	
CNC(=O)c1c(-c2ccc(Oc3ccccc3C)cc2)oc2nc(CCC(F)(F)F)c(-c3cccc(C(=O)NC(C)(C)C)c3)cc12 [Compound 2008]	< 0.1 µM	
CNC(=O)c1c(-c2ccc(Oc3cccc(OC)c3)cc2)oc2nc(CCC(F)(F)F)c(-c3cccc(C(=O)NC(C)(C)C)c3)cc12 [Compound 2009]	< 0.1 µM	
CNC(=O)c1c(-c2ccc(Oc3ccccc3OC)cc2)oc2nc(CCC(F)(F)F)c(-c3cccc(C(=O)NC(C)(C)C)c3)cc12 [Compound 2010]	< 0.1 µM	
CNC(=O)c1c(-c2ccc(Oc3cccnc3)cc2)oc2nc(CCC(F)(F)F)c(-c3cccc(C(=O)NC(C)(C)C)c3)cc12 [Compound 2011]	< 0.1 µM	
CNC(=O)c1c(-c2ccc(Oc3ccccn3)cc2)oc2nc(CCC(F)(F)F)c(-c3cccc(C(=O)NC(C)(C)C)c3)cc12 [Compound 2012]	> 1 µM	
CNC(=O)c1c(-c2ccc(Oc3ccc(C(=O)O)cc3)cc2)oc2nc(CCC(F)(F)F)c(-c3cccc(C(=O)NC(C)(C)C)c3)cc12 [Compound 2013]	> 1 µM	
CNC(=O)c1c(-c2ccc(Oc3cccc(F)c3)cc2)oc2nc(CCC(F)(F)F)c(-c3ccc(OC)c(C(=O)NC4(c5ncccn5)CC4)c3)cc12 [Compound 2014]	< 0.1 µM	
CCCCOc1ccc(-c2oc3nc(CCC(F)(F)F)c(-c4cccc(C(=O)NC(C)(C)C)c4)cc3c2C(=O)NC)cc1 [Compound 3001]	< 0.1 µM	
CNC(=O)c1c(-c2ccc(OCC(F)(F)F)cc2)oc2nc(CCC(F)(F)F)c(-c3cccc(C(=O)NC(C)(C)C)c3)cc12 [Compound 3002]	< 0.1 µM	
CNC(=O)c1c(-c2ccc(N3CCCC3)cc2)oc2nc(CCC(F)(F)F)c(-c3cccc(C(=O)NC(C)(C)C)c3)cc12 [Compound 4001]	> 1 µM	
CNC(=O)c1c(-c2ccc(NCC(F)F)cc2)oc2nc(NCC(F)F)c(-c3cccc(C(=O)NC(C)(C)C)c3)cc12 [Compound 4002]	< 0.1 µM	EC50 ([1]; read-out: EC50 (uM) 1b): 0.0094 µM
CNC(=O)c1c(-c2ccc(Sc3ccccc3)cc2)oc2nc(CCC(F)(F)F)c(-c3cccc(C(=O)NC(C)(C)C)c3)cc12 [Compound 5001]	0.1 to 1 µM	EC50 ([1]; read-out: EC50 (uM) 1b): 0.16 µM
CNC(=O)c1c(-c2ccc(C(C#N)C(N)=O)cc2)oc2nc(CCC(F)(F)F)c(-c3cccc(C(=O)NC(C)(C)C)c3)cc12 (stereo not drawn) [Compound 6001]	0.1 to 1 µM	EC50 ([1]; read-out: EC50 (uM) 1b): 0.34 µM
CCNc1nc2oc(-c3ccc(C)cc3)c(C(=O)NC)c2cc1-c1cccc(C(=O)NC(C)(C)C)c1 [Compound 6002, 5-(3-(tert-butylcarbamoyl)phenyl)-6-(ethylamino)-N-methyl-2-(p-tolyl)furo[2,3-b]pyridine-3-carboxamide]	< 0.1 µM	EC50 ([1]; read-out: EC50 (uM) 1b): 0.0036 µM
CCNc1nc2oc(-c3ccc(C)cc3)c(C(=O)NC)c2cc1-c1cccc(C(=O)NC2(C(F)(F)F)CC2)c1 [Compound 6003, 6-(ethylamino)-N-methyl-2-(p-tolyl)-5-(3-((1-(trifluoromethyl)cyclopropyl)carbamoyl)phenyl)furo[2,3-b]pyridine-3-carboxamide]	< 0.1 µM	EC50 ([1]; read-out: EC50 (uM) 1b): 0.0061 µM
CNC(=O)c1c(-c2ccc(F)cc2)oc2cc(N(CCO)S(C)(=O)=O)c(C3CC3)cc12 [HCV-796]		toxicity during extended dosing ([2]; extended dosing of the combination regimens): hepatic toxicity; HCV RNA levels in patients ([2]; patients, single agent transient, more robust with interferon and ribavirin): reduce HCV RNA levels
alpha-interferon and ribavirin		sustained efficacy, share of patients [3]: 40%
